# Tested on: p-ERK in NCI-H441 cells (KRAS G12V mutation)
# Assay: Cell p-ERK assay (HTRF) in NCI-H441 cells
# Type: cell-based, human
# Details: Homo sapiens, NCI-H441, 3 h, NCI-H441 cells, 3 h compound incubation, HTRF p-ERK T202/Y204; read-out: H441 p-ERK IC50
# Method in brief: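 Seed 10000 AsPC-1 or 20000 NCI-H441 cells/well, overnight 37 °C/5% CO2. Cpd 3.16-fold series, 0.1% DMSO final, 3 h. Lyse 30 min, HTRF p-ERK (T202/Y204) Ab 4 h. IC50: 4-parameter fit of IR% normalised to DMSO and blank.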
row,Compound,IC50 [nM]
1,"CCn1c(-c2cc(N3CCN4CC5(CC5)OC[C@@H]4C3)cnc2[C@H](C)OC)c2c3cc(ccc31)-c1csc(n1)C[C@H](NC(=O)[C@H]1[C@H](C)[C@@H]1C)C(=O)N1CCC[C@H](N1)C(=O)OCC1(CC1)C2 (atropisomer, axis not shown; (Ra)) [Compound Z13]",0.88
2,"CCn1c(-c2cc(C#C[C@@H]3COCCN3C)cnc2[C@H](C)OC)c2c3cc(ccc31)-c1csc(n1)C[C@H](NC(=O)[C@H]1[C@H](C)[C@@H]1C)C(=O)N1CCC[C@H](N1)C(=O)OCC(C)(C)C2 (atropisomer, axis not shown; (Ra)) [Compound Z672, (1r,2R,3S)—N-((6^3S,4S,Z)-1^1-ethyl-(Ra)-1^2-(2-((S)-1-methoxyethyl)-5-(((R)-4-methylmorpholin-3-yl)ethynyl)pyridin-3-yl)-10,10-dimethyl-5,7-dioxo-6^1,6^2,6^3,6^4,6^5,6^6hexahydro-1^1H-8-oxa-2(4,2)-thiazola-1(5,3)-indola-6(1,3)-pyridazinacycloundecaphane-4-yl)-2,3-dimethylcyclopropane-1-carboxamide]",0.39
3,"CCn1c(-c2cc(C#CCN3CCC(C(F)(F)F)CC3)cnc2[C@H](C)OC)c2c3cc(ccc31)-c1csc(n1)C[C@H](NC(=O)[C@H]1[C@H](C)[C@@H]1C)C(=O)N1CCC[C@H](N1)C(=O)OCC(C)(C)C2 (atropisomer, axis not shown; (Ra)) [Compound Z778]",0.37
4,"CCn1c(-c2cc(C#CCN3CCN(C)C(=O)C3)cnc2[C@H](C)OC)c2c3cc(ccc31)-c1csc(n1)C[C@H](NC(=O)[C@H]1[C@H](C)[C@@H]1C)C(=O)N1CCC[C@H](N1)C(=O)OCC(C)(C)C2 (atropisomer, axis not shown; (Ra)) [Compound Z793]",0.09
5,"CCn1c(-c2cc(C#CCN3CCCN(C)CC3)cnc2[C@H](C)OC)c2c3cc(ccc31)-c1csc(n1)C[C@H](NC(=O)[C@H]1[C@H](C)[C@@H]1C)C(=O)N1CCC[C@H](N1)C(=O)OCC(C)(C)C2 (atropisomer, axis not shown; (Ra)) [Compound Z802, (1r,2R,3S)—N-((6^3S,4S,Z)-1^2-(5-(3-(4-methyl-1,4-diaza-1-yl)prop-1-yn-1-yl)-(Ra)-2-((S)-1-methoxyethyl)pyridin-3-yl)-1^1-ethyl-10,10-dimethyl-5,7-dioxo-6^1,6^2,6^3,6^4,6^5,6^6-hexahydro-1^1H-8-oxa-2(4,2)-thiazola-1(5,3)-indola-6(1,3)-pyridazinacycloundecaphane-4-yl)-2,3-dimethylcyclopropane-1-carboxamide]",0.4
6,"CCn1c(-c2cc(C#CCN3CCS(=O)(=O)CC3)cnc2[C@H](C)OC)c2c3cc(ccc31)-c1csc(n1)C[C@H](NC(=O)[C@H]1[C@H](C)[C@@H]1C)C(=O)N1CCC[C@H](N1)C(=O)OCC(C)(C)C2 (atropisomer, axis not shown; (Ra)) [Compound Z838, (1r,2R,3S)—N-((6^3S,4S,Z)—(Ra)-1^2-(5-(3-(1,1-dioxidothiomorpholino)prop-1-yn-1-yl)-2-((S)-1-methoxyethyl)pyridin-3-yl)-1^1-ethyl-10,10-dimethyl-5,7-dioxo-6^1,6^2,6^3,6^4,6^5,6^6-hexahydro-1^1H-8-oxa-2(4,2)-thiazola-1(5,3)-indola-6(1,3)-pyridazinacycloundecaphane-4-yl)-2,3-dimethylcyclopropane-1-carboxamide]",0.15
7,"CCn1c(-c2cc(C#CCN3CCS(=O)(=O)CC3)cnc2[C@H](C)OC)c2c3cc(ccc31)-c1csc(n1)C[C@H](Nc1nnc3cc(C)ccn13)C(=O)N1CCC[C@H](N1)C(=O)OCC(C)(C)C2 (atropisomer, axis not shown; (Ra)) [Compound Z911, (6^3S,4S,Z)—(Ra)-1^2-(5-(3-(1,1-dioxidothiomorpholino)prop-1-yn-1-yl)-2-((S)-1-methoxyethyl)pyridin-3-yl)-1^1-ethyl-10,10-dimethyl-4-((7-methyl-[1,2,4]triazolo[4,3-a]pyridin-3-yl)amino)-6^1,6^2,6^3,6^4,6^5,6^6-hexahydro-1^1H-8-oxa-2(4,2)-thiazola-1(5,3)-indola-6(1.3)-pyridazinacycloundecaphane-5,7-dione]",0.74
8,"CCn1c(-c2cc(C#CCN3CCCOCC3)cnc2[C@H](C)OC)c2c3cc(ccc31)-c1csc(n1)C[C@H](NC(=O)CC1CC1)C(=O)N1CCC[C@H](N1)C(=O)OCC(C)(C)C2 (atropisomer, axis not shown; (Ra)) [Compound Z915]",0.68
9,"CCn1c(-c2cc(N3CCN(CCS(C)(=O)=O)CC3)cnc2[C@H](C)OC)c2c3cc(ccc31)-c1csc(n1)C[C@H](NC(=O)[C@H]1[C@H](C)[C@@H]1C)C(=O)N1CCC[C@H](N1)C(=O)OCC1(CC1)C2 (single isomer, unassigned) [Compound Z367]",2.1
10,"CCO[C@@H](C)c1ncc(N2CCN(CCS(C)(=O)=O)CC2)cc1-c1c2c3cc(ccc3n1CC)-c1csc(n1)C[C@H](NC(=O)[C@H]1[C@H](C)[C@@H]1C)C(=O)N1CCC[C@H](N1)C(=O)OCC1(CC1)C2 (single isomer, unassigned) [Compound Z378-1]",4.64
11,"CCn1c(-c2cc(C#CCN3CCCOCC3)cnc2[C@H](C)OC)c2c3cc(ccc31)-c1csc(n1)C[C@H](NC(=O)[C@H]1[C@H](C)[C@@H]1C)C(=O)N1CCC[C@H](N1)C(=O)OCC(C)(C)C2 (single isomer, unassigned) [Compound Z504]",0.55
12,"CCn1c(-c2cc(C#CCN3CCC3)cnc2[C@H](C)OC)c2c3cc(ccc31)-c1csc(n1)C[C@H](NC(=O)[C@H]1[C@H](C)[C@@H]1C)C(=O)N1CCC[C@H](N1)C(=O)OCC(C)(C)C2 (single isomer, unassigned) [Compound Z554]",0.42
13,"CCn1c(-c2cc(C#CCN3CCCOCC3)cnc2[C@H](C)OC)c2c3cc(ccc31)-c1csc(n1)C[C@H](NC(=O)[C@H]1C[C@@H]1C)C(=O)N1CCC[C@H](N1)C(=O)OCC(C)(C)C2 (single isomer, unassigned) [Compound Z604]",0.26
14,"CCn1c(-c2cc(C#CCN3CCCOCC3)cnc2[C@H](C)OC)c2c3cc(ccc31)-c1csc(n1)C[C@H](NC(=O)CC(C)C)C(=O)N1CCC[C@H](N1)C(=O)OCC(C)(C)C2 (single isomer, unassigned) [Compound Z803]",1.14

# Same assay, conditions: NCI-H441 cells, 3 h compound incubation, HTRF p-ERK T202/Y204; read-out: H441 p-ERK IC50
row,Compound,IC50 [nM]
1,"CO[C@@H](C)c1ncc(C#CCN2CCCOCC2)cc1-c1c2c3cc(ccc3n1CC(F)(F)F)-c1csc(n1)C[C@H](NC(=O)[C@H]1[C@H](C)[C@@H]1C)C(=O)N1CCC[C@H](N1)C(=O)OCC(C)(C)C2 (atropisomer, axis not shown; (Ra)) [Compound Z700, N-((6^3S,4S,Z)-1^1-(2,2,2-trifluoroethyl)-(Ra)-1^2-(2-((S)-1-methoxyethyl)-(5-(3-(1,4-oxazepan-4-yl)prop-1-yn-1-yl))-pyridin-3-yl)-10,10-dimethyl-5,7-dioxo-6^1,6^2,6^3,6^4,6^5,6^6-hexahydro-1^1H-8-oxa-2(4,2)-thiazola-1(5,3)-indola-6(1,3)-pyridazinacycloundecaphane-4-yl)-2,3-dimethylcyclopropane-1-carboxamide]",0.2
2,"CCn1c(-c2cc(C#CCN3C4CCC3COC4)cnc2[C@H](C)OC)c2c3cc(ccc31)-c1csc(n1)C[C@H](NC(=O)[C@H]1[C@H](C)[C@@H]1C)C(=O)N1CCC[C@H](N1)C(=O)OCC(C)(C)C2 (atropisomer, axis not shown; (Ra)) [Compound Z711, (1r,2R,3S)—N-((6^3S,4S,Z)—(Ra)-1^2-(5-(3-(3-oxa-8-azabicyclo[3.2.1]octan-8-yl)prop-1-yn-1-yl)-2-((S)-1-methoxyethyl)pyridin-3-yl)-1^1-ethyl-10,10-dimethyl-5,7-dioxo-6^1,6^2,6^3,6^4,6^5,6^6-hexahydro-1^1H-8-oxa-2(4,2)-thiazola-1(5,3)-indola-6(1,3)-pyridazinacycloundecaphane-4-yl)-2,3-dimethylcyclopropane-1-carboxamide]",0.23
3,"CCn1c(-c2cc(C#CCN(C)CCOC)cnc2[C@H](C)OC)c2c3cc(ccc31)-c1csc(n1)C[C@H](NC(=O)[C@H]1[C@H](C)[C@@H]1C)C(=O)N1CCC[C@H](N1)C(=O)OCC(C)(C)C2 (atropisomer, axis not shown; (Ra)) [Compound Z788]",0.19
4,"CCn1c(-c2cc(C#CCN3CCOC[C@H]3C)cnc2[C@H](C)OC)c2c3cc(ccc31)-c1csc(n1)C[C@H](NC(=O)[C@H]1[C@H](C)[C@@H]1C)C(=O)N1CCCC(N1)C(=O)OCC(C)(C)C2 (atropisomer, axis not shown; (Ra)) [Compound Z813]",0.08
5,"CCn1c(-c2cc(C#CCN3CCCOCC3)cnc2C(C)C)c2c3cc(ccc31)-c1csc(n1)C[C@H](NC(=O)[C@H]1[C@H](C)[C@@H]1C)C(=O)N1CCC[C@H](N1)C(=O)OCC(C)(C)C2 (atropisomer, axis not shown; (Sa)) [Compound Z811-2, (1r,2R,3S)—N-((6^3S,4S,Z)—(Sa)-1-(5-(3-(1,4-oxazepan-4-yl)prop-1-yn-1-yl)-2-isopropylpyridin-3-yl)-1^1-ethyl-10,10-dimethyl-5,7-dioxo-6^1,6^2,6^3,6^4,6^5,6^6-hexahydro-1^1H-8-oxa-2(4,2)-thiazola-1(5,3)-indola-6(1,3)-pyridazinacycloundecaphane-4-yl)-2,3-dimethylcyclopropane-1-carboxamide]",0.21

# Source: patent US20260234165A1, “MACROCYCLIC COMPOUNDS, PREPARATION METHOD THEREFOR, AND USE THEREOF” (GENFLEET THERAPEUTICS (SHANGHAI) INC., priority 2004, published 2026)
